Where two headings read alike, the source gives them in different places. Starred links: 1 amine or outer side, 2 acyl side, 3 side chain; linkers in the order of their positions; H or OH if unused. Positions of bridges follow the written chain, without caps; N, C: chain ends. Non-standard residues stand in square brackets, D forms with d. Residues, ends and D or L forms follow the SMILES beside them. Groups on a side chain read outwards from the residue. *: point of attachment. Trp(1-CH2COOH) = N[C@@H](Cc1cn(CC(=O)O)c2ccccc12)C(=O)O; C18 diacid = O=C(O)CCCCCCCCCCCCCCCCC(=O)*; γGlu = O=C(O)[C@H](CCC(=O)[*:2])N[*:1]; Hyp = O=C(O)[C@@H]1C[C@@H](O)CN1; NMeNle = CCCC[C@H](NC)C(=O)O; NMeA = CN[C@@H](C)C(=O)O; Dab = NCC[C@H](N)C(=O)O; Dap = NC[C@H](N)C(=O)O
Target: T1, PD-L1 (Homo sapiens, UniProt Q9NZQ7)
T1 construct: hPDL1(19-239)-TVMV-His; made in house; host or cells: HEK293T
T1 sequence (Q9NZQ7 with tags, fused parts or gaps): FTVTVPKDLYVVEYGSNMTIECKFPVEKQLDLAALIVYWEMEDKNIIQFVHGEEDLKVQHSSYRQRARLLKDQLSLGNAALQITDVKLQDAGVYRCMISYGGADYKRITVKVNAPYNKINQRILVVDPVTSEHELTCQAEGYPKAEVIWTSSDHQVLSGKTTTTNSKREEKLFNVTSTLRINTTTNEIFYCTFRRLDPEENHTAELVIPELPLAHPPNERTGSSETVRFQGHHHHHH
Assay: PD-1/PD-L1 Homogenous Time-Resolved Fluorescence (HTRF) binding assay (PD-1-Ig/PD-L1-His)
Summary of the method: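 HTRF competition in dPBS with 0.1% BSA and 0.05% Tween-20: 20 nM PD-1-Ig added after 15 min compound pre-incubation with 10 nM PD-L1-His, then another 15 min. Signal (665/620 nm) after 30 min with APC anti-His (20 nM) and Eu anti-Ig (1 nM).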

Row | IC50 (inhibition of PD-1-Ig binding to PD-L1-TVMV-His, value given as range class, read-out: HTRF IC50) [nM] | Structure (SMILES) | IC50 [nM]
1 |  | CCCC[C@H]1C(=O)N(C)[C@@H](CCCC)C(=O)N[C@@H](CCC(=O)O)C(=O)N[C@H](C(=O)NCC(=O)N[C@@H](Cc2cn(CCOCCOCCOCCOCCOCCOC(=O)CCC(=O)Oc3c(C)c(C)c4c(c3C)CC[C@@](C)(CCC[C@H](C)CCC[C@H](C)CCCC(C)C)O4)nn2)C(=O)NCC(N)=O)CSCC(=O)N[C@@H](Cc2ccc(O)cc2)C(=O)N(C)[C@@H](C)C(=O)N[C@@H](CC(=O)O)C(=O)N2CCC[C@H]2C(=O)N[C@@H](Cc2c[nH]cn2)C(=O)N[C@@H](CCCCN)C(=O)N2C[C@H](O)C[C@H]2C(=O)N[C@@H](Cc2c[nH]c3ccccc23)C(=O)N[C@@H](CCCCN)C(=O)N[C@@H](Cc2c[nH]c3ccccc23)C(=O)N1C [Example 14053] | 100 to 1600
2 | 0.3 to 9.9 | CCCC[C@H]1C(=O)N(C)[C@@H](CCCC)C(=O)N[C@@H](CC(C)C)C(=O)N[C@H](C(=O)NCC(=O)N[C@@H](CNC(=O)CC[C@H](NC(=O)CCCCCCCCCCCCCCCCC(=O)O)C(=O)O)C(=O)O)CSCC(=O)N[C@@H](Cc2ccc(O)cc2)C(=O)N(C)[C@@H](C)C(=O)N[C@@H](CC(N)=O)C(=O)N2CCC[C@H]2C(=O)N[C@@H](CN)C(=O)N[C@@H](CC(C)C)C(=O)N2C[C@H](O)C[C@H]2C(=O)N[C@@H](Cc2c[nH]c3ccccc23)C(=O)N[C@@H](CCN)C(=O)N[C@@H](Cc2cn(CC(=O)O)c3ccccc23)C(=O)N1C [Example 13153] ({CH2CO}-Y[NMeA]NP[Dap]L[Hyp]W[Dab][Trp(1-CH2COOH)][NMeNle][NMeNle]LCG[Dap]([γGlu-C18 diacid])-OH; thioether N-14) | 

Reference: patent publication US10633419B2, “Immunomodulators” (BRISTOL-MYERS SQUIBB COMPANY, priority 2014, dated 2020)
